Source: patent US20050107289A1, “Anti-microbial peptides and compositions” (priority 2001, published 2005)
Like-named read-outs stand apart in the source and are kept apart here. Non-standard residues stand in square brackets, D forms with d. Residues, ends and D or L forms follow the SMILES beside them.

Experiments:
[1] = test system: vancomycin-resistant Enterococus faecalis (VRE)(ATCC 51575); type: cell-based, Enterococcus faecalis; parameters: key to VRE (in vitro activity): peptide concentration in μg/ml (broth dilution assay); settings: for VRE MIC: ATCC 51575; for VRE (in vitro activity): Table 9
In short: (§1)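 First, peptide stocks in 5% DMSO/9% sucrose were quantified and diluted 2-fold over roughly 400-2 μg/ml. Next, overnight cultures were diluted 4000-fold to ~2.5×10^5 cfu/ml and combined with peptide. Minimum inhibitory concentrations followed NCCLS broth macro- or microdilution procedures.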

murine red blood cells = experiment: Red blood cell hemolysis; type: cell-based, mouse; settings: for Hemolysis HD50: red cells of murine
In short: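 Washed murine erythrocytes at 5% in saline with 10% FBS were exposed to serial peptide dilutions for 30 min at 37° C. Supernatant absorbance at 560 nm was read, with saline as 0% and 1% Triton X-100 as 100% hemolysis.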

E. coli JM109(DE3) = type: cell-based, Escherichia coli; settings: JM109
Description: (§2) The antimicrobial activity of the peptides was determined using a broth dilution assay essentially as descried in the guidelines of the National Committee for […] (NCCLS) [National Committee for Clinical Laboratory Standards. Methods for dilution antimicrobial susceptibility tests for bacteria that grow aerobically. Fourth edition. Approved Standard (1997). Document M7-A4. […] The microdilution method has the advantages of requiring less amount of peptide for each assay and the possibility of multiple simultaneous inoculations and was used in most studies. Several of the strains of bacteria tested are further described in Table 3.
(§3) Preparation of peptide solutions. Stock peptide solutions were prepared in 5% DMSO in aq. sucrose (9%). Determination of peptide concentrations was done by quantitative HPLC analysis using known concentrations of internal standards and/or by measuring UV absorption of tryptophane-containing peptide solutions in H2O (λ=280 εTrp: 5690). Serial 2-fold dilutions were made in the above DMSO/aq. sucrose (9%) mixture with concentrations ranging approximately 400-2 μg/ml and aliquots were dispensed in test tubes (100 μl) for the macrodilution test or in microtiter plates (20 μl) for the microdilution assays.
(§4) Inoculum preparation. Overnight cultures of different microorganisms grown in suitable media were diluted 4000 times to an approximate inoculum size of 2.5×10^5 cfu/ml.
(§5) Macrodilution method. Macrodilution methods were performed using procedures similar to those described in the National Committee for Clinical Laboratory Standards. Methods for dilution antimicrobial susceptibility tests for bacteria that grow aerobically. Fourth edition. Approved Standard (1997). Document M7-A4. (NCCLS,Villanova, Pa., 1997). Two ml aliquots of the above inoculum were dispensed to test tubes containing different peptide solutions.
(§6) Microdilution method. Microdilution methods were performed using procedures similar to those described in the National Committee for Clinical Laboratory Standards. Methods for dilution antimicrobial susceptibility tests for bacteria that grow aerobically. Fourth edition. Approved Standard (1997). Document M7-A4.

[2] = test system: Streptococcus pneumoniae (ATCC 6301); type: cell-based
Description: as §2, §3, §4, §5, §6

[3] = test system: Bacillus cereus ATCC 11778; type: cell-based
Description: as §2, §3, §4, §5, §6

[4] = test system: S. aureus (MRSA) ATCC 33591; type: cell-based, Staphylococcus aureus; settings: for MRSA MIC / S. aureus (MRSA) MIC: ATCC 33591; for MRSA (in vitro activity): Table 9
In short: as §1

[5] = media a: anti-microbial media-3 (AM-3)

Row | Structure (SMILES) | VRE MIC [1] | E. coli MIC (E. coli JM109(DE3)) | S. pneum. MIC [2] | B. cerius MIC [3] | MRSA MIC [4] | S. aureus (MRSA) MIC [4] | MRSA MIC ([4]; Table 10) | VRE (in vitro activity) ([1]; media a: AM-3) | RBC Hemolysis (HD50) (murine red blood cells) | MRSA (in vitro activity) [4, 5] | Hemolysis HD50 (murine red blood cells) | VRE (in vitro activity) ([1]; media c: Brain Heart Infusion (BHI)) | MRSA (in vitro activity) ([4]; media b: cation adjusted Meuller Hinton broth (MHBII))
1 | CC(=O)N[C@H](CC(C)C)C(=O)N[C@@H](Cc1c[nH]c2ccccc12)C(=O)N[C@H](CCCNC(=N)N)C(=O)N[C@@H](CCCNC(=N)N)C(=O)N[C@H](CCCCN)C(=O)N[C@@H](Cc1c[nH]c2ccccc12)C(=O)N[C@H](CC(C)C)C(=O)N[C@@H](Cc1c[nH]c2ccccc12)C(N)=O [SEQ ID NO:138, Ac-LWRRKWLW-NH2] (Ac-[dL]W[dR]R[dK]W[dL]W-NH2) | 100 µg/mL | 7 µg/mL | 20 µg/mL | 20 µg/mL | 15 µg/mL | – | – | – | – | – | 100 µg/mL | – | –
2 | CC(C)C[C@H]1NC(=O)[C@H](Cc2c[nH]c3ccccc23)NC(=O)[C@@H](CCCCN)NC(=O)[C@H](CCCNC(=N)N)NC(=O)[C@@H](CCCNC(=N)N)NC(=O)[C@H](Cc2c[nH]c3ccccc23)NC(=O)[C@@H](CC(C)C)NC(=O)[C@H](Cc2c[nH]cn2)NC1=O [SEQ ID NO:110, [RRKWLHLW]] (cyclo([dR]R[dK]W[dL]H[dL]W)) | 40 µg/mL | 15 µg/mL | 20 µg/mL | 20 µg/mL | 25 µg/mL | – | – | 40 | 100 | 25 | 100 µg/mL | – | –
3 | CC(C)C[C@H]1NC(=O)[C@H](CCCCN)NC(=O)[C@@H](CC(C)C)NC(=O)[C@H](Cc2c[nH]c3ccccc23)NC(=O)[C@@H](CC(C)C)NC(=O)[C@H](Cc2c[nH]c3ccccc23)NC(=O)[C@@H](CC(C)C)NC(=O)[C@H](Cc2c[nH]c3ccccc23)NC1=O [SEQ ID NO:3, cyclo[-Lys-D-Leu-(Trp-D-Leu)3]] (cyclo(K[dL]W[dL]W[dL]W[dL])) | 80 µg/mL | 100 µg/mL | 50 µg/mL | 50 µg/mL | – | – | ppt | – | – | – | 20 µg/mL | – | –
4 | CC(C)C[C@H]1NC(=O)[C@H](Cc2c[nH]c3ccccc23)NC(=O)[C@@H](Cc2c[nH]cn2)NC(=O)[C@H](CCCCN)NC(=O)[C@@H](CCC(=O)O)NC(=O)[C@H](Cc2c[nH]c3ccccc23)NC(=O)[C@@H](CC(C)C)NC(=O)[C@H](Cc2c[nH]c3ccccc23)NC1=O [SEQ ID NO:16, cyclo-(D-Glu-Lys-D-His-Trp-D-Leu-Trp-D-Leu-Trp)] (cyclo(K[dH]W[dL]W[dL]W[dE])) | 100 µg/mL | 100 µg/mL | 50 µg/mL | 85 µg/mL | 100 µg/mL | 100 µg/mL | – | 100 | >100 | 100 | – | – | –
5 | CC(C)C[C@H]1NC(=O)[C@H](CO)NC(=O)[C@@H](CCCCN)NC(=O)[C@H](Cc2c[nH]c3ccccc23)NC(=O)[C@@H](CC(C)C)NC(=O)[C@H](Cc2c[nH]c3ccccc23)NC1=O [SEQ ID NO:28, cyclo-(D-Lys-Ser-D-Leu-Trp-D-Leu-Trp)] (cyclo(S[dL]W[dL]W[dK])) | 100 µg/mL | 100 µg/mL | 20 µg/mL | 15 µg/mL | 100 µg/mL | 75 µg/mL | – | – | 90 | – | – | 100 | 100
6 | CC(C)C[C@H]1NC(=O)[C@H](Cc2c[nH]c3ccccc23)NC(=O)[C@@H](CO)NC(=O)[C@H](Cc2c[nH]cn2)NC(=O)[C@@H]([C@H](C)O)NC(=O)[C@H](Cc2c[nH]c3ccccc23)NC(=O)[C@@H](CC(C)C)NC(=O)[C@H](Cc2c[nH]c3ccccc23)NC1=O [SEQ ID NO:6, cyclo-(D-Thr-His-D-Ser-Trp-D-Leu-Trp-D-Leu-Trp)] (cyclo(H[dS]W[dL]W[dL]W[dT])) | 100 µg/mL | 100 µg/mL | 100 µg/mL | > 280 µg/mL | 100 µg/mL | 100 µg/mL | – | 100 | 100 | 100 | – | – | –
7 | CC(=O)N[C@H](CCCNC(=N)N)C(=O)N[C@@H](CCCNC(=N)N)C(=O)N[C@H](CCCCN)C(=O)N[C@@H](Cc1c[nH]c2ccccc12)C(=O)N[C@H](CC(C)C)C(=O)N[C@@H](Cc1c[nH]c2ccccc12)C(=O)N[C@H](CC(C)C)C(=O)N[C@@H](Cc1c[nH]c2ccccc12)C(N)=O [SEQ ID NO:136, Ac-RRKWLWLW-NH2] (Ac-[dR]R[dK]W[dL]W[dL]W-NH2) | 100 µg/mL | 6 µg/mL | 40 µg/mL | 22 µg/mL | 70 µg/mL | – | – | – | – | – | 100 µg/mL | – | –

Continued, in another order:

Row | VRE MIC [1] | E. coli MIC (E. coli JM109(DE3)) | S. pneum. MIC [2] | B. cerius MIC [3] | MRSA MIC [4] | S. aureus (MRSA) MIC [4] | MRSA MIC ([4]; Table 10) | Structure (SMILES) | VRE (in vitro activity) ([1]; media a: AM-3) | RBC Hemolysis (HD50) (murine red blood cells) | MRSA (in vitro activity) [4, 5] | Hemolysis HD50 (murine red blood cells) | VRE (in vitro activity) ([1]; media c: Brain Heart Infusion (BHI)) | MRSA (in vitro activity) ([4]; media b: cation adjusted Meuller Hinton broth (MHBII))
8 | 100 µg/mL | 100 µg/mL | 70 µg/mL | > 280 µg/mL | 100 µg/mL | 100 µg/mL | – | CC(C)C[C@H]1NC(=O)[C@H](Cc2c[nH]c3ccccc23)NC(=O)[C@@H](CC(C)C)NC(=O)[C@H](Cc2c[nH]c3ccccc23)NC(=O)[C@@H](CC(=O)O)NC(=O)CNC(=O)[C@@H](CCCNC(=N)N)NC(=O)[C@H](Cc2c[nH]c3ccccc23)NC1=O [SEQ ID NO:7, RGDWLWLW] (cyclo([dR]G[dD]W[dL]W[dL]W)) | 100 | 100 | 100 | – | – | –
9 | 80 µg/mL | 6 µg/mL | 25 µg/mL | 23 µg/mL | 12 µg/mL | – | – | CC(C)C[C@H]1NC(=O)[C@H](Cc2c[nH]c3ccccc23)NC(=O)[C@@H](CCCCN)NC(=O)[C@H](CCCNC(=N)N)NC(=O)[C@@H](CCCNC(=N)N)NC(=O)[C@H](Cc2c[nH]c3ccccc23)NC(=O)[C@@H](CC(C)C)NC(=O)[C@H](CCCCN)NC1=O [SEQ ID NO:111, [RRKWLKLW]] (cyclo([dR]R[dK]W[dL]K[dL]W)) | 80 | 100 | 12 | 100 µg/mL | – | –
10 | 40 µg/mL | 4 µg/mL | 20 µg/mL | 9 µg/mL | 5 µg/mL | – | – | CC(C)C[C@@H](N)C(=O)N[C@@H](Cc1c[nH]c2ccccc12)C(=O)N[C@H](CCCNC(=N)N)C(=O)N[C@@H](CCCNC(=N)N)C(=O)N[C@H](CCCCN)C(=O)N[C@@H](Cc1c[nH]c2ccccc12)C(=O)N[C@H](CC(C)C)C(=O)N[C@@H](Cc1c[nH]c2ccccc12)C(N)=O [SEQ ID NO:137, H-LWRRKWLW-NH2] (H-[dL]W[dR]R[dK]W[dL]W-NH2) | – | – | – | 100 µg/mL | – | –
11 | 100 µg/mL | 4 µg/mL | 40 µg/mL | 19 µg/mL | 20 µg/mL | – | – | CC(C)C[C@@H](NC(=O)[C@H](Cc1c[nH]c2ccccc12)NC(=O)[C@@H](CC(C)C)NC(=O)[C@H](Cc1c[nH]c2ccccc12)NC(=O)[C@@H](CCCCN)NC(=O)[C@H](CCCNC(=N)N)NC(=O)[C@H](N)CCCNC(=N)N)C(=O)N[C@@H](Cc1c[nH]c2ccccc12)C(N)=O [SEQ ID NO:135, H-RRKWLWLW-NH2] (H-[dR]R[dK]W[dL]W[dL]W-NH2) | – | – | – | 100 µg/mL | – | –
12 | 100 µg/mL | 40 µg/mL | 100 µg/mL | 195 µg/mL | 80 µg/mL | – | – | CC(C)C[C@H]1NC(=O)[C@H](Cc2c[nH]c3ccccc23)NC(=O)[C@@H](CCCCN)NC(=O)[C@H](CCCNC(=N)N)NC(=O)[C@@H](CCCNC(=N)N)NC(=O)[C@H](Cc2c[nH]c3ccccc23)NC(=O)[C@@H](CC(C)C)NC(=O)[C@H](CCC(=O)O)NC1=O [SEQ ID NO:109, [RRKWLELW]] (cyclo([dR]R[dK]W[dL]E[dL]W)) | 100 | 100 | 80 | 100 µg/mL | – | –
